Results reported in ChEMBL document CHEMBL5252574, “α-Synuclein Aggregation Inhibitory Procerolides and Diphenylalkanes from the Ascidian Polycarpa procera” (J Nat Prod, 2023).
The source made the active and inactive calls. The rule behind the calls is not given here.

The molecules below were run against Alpha-synuclein (Homo sapiens) (UniProt P37840) (assay: Inhibition of human alpha-syn expressed in Escherichia coli BL21 (DE3) cells aggregation incubated for 36 hrs by ThT dye based fluorescence assay).

inhibition | SMILES
inactive | CCOC(=O)C1(Cc2ccc(OC)cc2)OC(=O)C(O)=C1c1ccc(OC)cc1 (configuration not stated)
inactive | CCOC(=O)C1(Cc2ccccc2)OC(=O)C(O)=C1c1ccccc1 (configuration not stated)
inactive | CCOC(=O)C1(Cc2ccc(C)cc2)OC(=O)C(O)=C1c1ccc(C)cc1 (configuration not stated)
inactive | CCOC(=O)C1(Cc2ccccc2)OC(=O)C(O)=C1c1ccc(OC)cc1 (configuration not stated)
inactive | CCOC(=O)C1(Cc2cccc(OC)c2)OC(=O)C(O)=C1c1cccc(OC)c1 (configuration not stated)
inactive | CCOC(=O)C1(Cc2ccc(OC)cc2)OC(=O)C(O)=C1c1ccccc1 (configuration not stated)

Second part, the molecule before the results:

SMILES | inhibition
CCOC(=O)C1(Cc2ccc(Cl)cc2)OC(=O)C(O)=C1c1ccc(Cl)cc1 (configuration not stated) | inactive
CCCC(C)CC1(C(=O)OCC)OC(=O)C(O)=C1c1ccc(OC)cc1 (configuration not stated) | inactive

The molecules below were run on Staphylococcus aureus (assay: Antibacterial activity against methicillin-susceptible Staphylococcus aureus ATCC 25923 incubated for 18 hrs by microdilution method).
Type: functional, organism-based

SMILES | Activity
COC1=C(c2cc(Br)c(O)c(Br)c2)[C@H](Cc2ccc(OC)c(Br)c2)OC1=O | inactive
COC1=C(c2cc(Br)c(O)c(Br)c2)[C@H](Cc2cc(Br)c(OC)c(Br)c2)OC1=O | inactive
COc1ccc(C[C@H](O)C(=O)c2cc(Br)c(O)c(Br)c2)cc1Br | inactive

These molecules were tested on Staphylococcus aureus (assay: Antibacterial activity against methicillin- resistant Staphylococcus aureus ATCC 43300 incubated for 18 hrs by microdilution method).
Type: functional, organism-based

SMILES | Activity
COC1=C(c2cc(Br)c(O)c(Br)c2)[C@H](Cc2ccc(OC)c(Br)c2)OC1=O | inactive
COC1=C(c2cc(Br)c(O)c(Br)c2)[C@H](Cc2cc(Br)c(OC)c(Br)c2)OC1=O | inactive
COc1ccc(C[C@H](O)C(=O)c2cc(Br)c(O)c(Br)c2)cc1Br | inactive

What follows are molecules tested on Pseudomonas aeruginosa (assay: Antibacterial activity against Pseudomonas aeruginosa ATCC 27853 incubated for 18 hrs by microdilution method).
Type: functional, organism-based

SMILES | Activity
COC1=C(c2cc(Br)c(O)c(Br)c2)[C@H](Cc2ccc(OC)c(Br)c2)OC1=O | inactive
COC1=C(c2cc(Br)c(O)c(Br)c2)[C@H](Cc2cc(Br)c(OC)c(Br)c2)OC1=O | inactive
COc1ccc(C[C@H](O)C(=O)c2cc(Br)c(O)c(Br)c2)cc1Br | inactive
